Assays:
Type in all cases: in vivo
[1] = tested on: Tetranychus urticae (spider mites - adult); test: Contact test, spider mites - adult (TUa), French bean leaf; conditions: 72 h, 3 days, read-out: TUA grading of mortality
Procedure, shortened: (§1)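 Mortality scored 1–7 days post-treatment. Test liquids at 100–500 ppm (acetone stock diluted into water + 0.1% w/w wetting agent) applied to pests, their plant/food medium, or both.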

[2] = tested on: Tetranychus urticae (spider mites - ova); test: Contact test, spider mites - ova (TUe), French bean leaf; conditions: 144 h, 6 days, read-out: TUE grading of mortality
Procedure, shortened: as §1

Myzus persicae (aphids) = test: Contact test, aphids (MP), Chinese Cabbage leaf; conditions: 72 h, 3 days, read-out: MP grading of mortality
Procedure, shortened: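 Aphids on a host plant and/or the plant itself were treated with 100–500 ppm of product, applied from acetone diluted in water containing 0.1% SYNPERONIC NX wetting agent. Mortality was scored usually one to seven days after treatment.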

[3] = tested on: Nilaparvata lugens (brown plant hopper - nymphs); test: Contact test, brown plant hopper - nymphs (NL), Rice plant; conditions: 72 h, 3 days, read-out: NL grading of mortality
Procedure, shortened: as §1

[4] = tested on: Musca domestica (houseflies - adults); test: Knockdown test, houseflies - adults (MD/KD), Cotton wool/sugar; conditions: 4 hours, read-out: MD/KD grading of knockdown
Procedure, shortened: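 Product was dissolved in acetone and diluted with water containing 0.1% wetting agent to 100–500 ppm. The flies and/or their food medium were treated with the preparation. Mortality was scored 1–7 days after treatment, with an additional knockdown assessment for houseflies.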

[5] = tested on: Musca domestica (houseflies - adults); test: Contact test, houseflies - adults (MD), Cotton wool/sugar; conditions: 24 h, 1 day, read-out: MD grading of mortality
Procedure, shortened: as §1

[6] = tested on: Blattella germanica (cockroach nymphs); test: Residual test, cockroach nymphs (BG), Plastic pot; conditions: 72 h, 3 days, read-out: BG grading of mortality
Procedure, shortened: as §1

[7] = tested on: Heliothis virescens (tobacco budworm - larvae); test: Residual test, tobacco budworm - larvae (HV), Cotton leaf; conditions: 72 h, read-out: HV grading of mortality
Procedure, shortened: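 Products applied as acetone solutions diluted in water with 0.1% wetting agent, at 100–500 ppm; pests on host plant or food, with pests and/or medium treated. Mortality or knockdown scored 1–7 days after treatment and graded A (80–100%), B (50–79%) or C (<50%).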

[8] = tested on: Diabrotica balteata (rootworm larvae); test: Residual test, rootworm larvae (DB), Filter paper/maize seed; conditions: 72 h, 3 days, read-out: DB grading of mortality
Procedure, shortened: as §1

[9] = tested on: Meloidogyne incognita (Tomato root knot eelworm - larvae); test: Residual test, Tomato root knot eelworm - larvae (MI), Semi in-vitro; conditions: 168 h, application rate is half that recorded, 7 days, read-out: MI grading of mortality; for mortality at 125 µg/mL: rate 250 ppm; for mortality at 250 µg/mL: rate column 500 ppm
[10] = tested on: Chilo partellus (Maize stemborer - larvae); test: Residual test, Maize stemborer - larvae (CP), Oilseed rape; conditions: 72 h, 3 days, read-out: CP grading of mortality
Method: The activity of the Product was determined using a variety of insect pests. The Product was used in the form of liquid preparations containing from 100 to 500 parts per million (ppm) by weight of the Product. The preparations were made by dissolving the Product in acetone and diluting the solutions with water containing 0.1% by weight of a wetting agent sold under the trade name "SYNPERONIC" NX until the liquid preparations contained the required concentration of the Product. "SYNPERONIC" is a Registered Trade Mark.
The test procedure adopted with regard to each pest was basically the same and comprised supporting a number of the pests on a medium which was usually a host plant or a foodstuff on which the pests feed, and treating either or both the pests and the medium with the preparations. The mortality of the pests was then assessed at periods usually varying from one to seven days after the treatment.
The results of the tests are given in Table III for each of the Products, at the rate in parts per million given in the second column as a grading of mortality designated as A, B or C wherein A indicates 80-100% mortality or knockdown (70-100% for Meloidogyne incognita), B indicates 50-79% mortality knockdown or knockdown (50-69% for Meloidogyne incognita) and C indicates less than 50% mortality or knockdown.
In Table III the pest organism used is designated by a letter code and the pests species, the support medium or food, and the type and duration of test is given in Table II.
(Maize stemborer - larvae)

SMILES | mortality at 250 ppm [1] [%] | mortality at 250 ppm [2] [%] | mortality at 250 ppm (Myzus persicae (aphids)) [%] | mortality at 250 ppm [3] [%] | pest or weed control at 250 ppm [4] [%] | mortality at 250 ppm [5] [%] | mortality at 250 ppm [6] [%] | mortality at 250 ppm [7] [%] | mortality at 250 ppm [8] [%] | mortality at 125 µg/mL [9] [%] | mortality at 250 ppm [10] [%] | mortality at 500 ppm [2] [%] | mortality at 500 ppm (Myzus persicae (aphids)) [%] | mortality at 500 ppm [3] [%] | pest or weed control at 500 ppm [4] [%] | mortality at 500 ppm [5] [%] | mortality at 500 ppm [6] [%] | mortality at 500 ppm [8] [%] | mortality at 500 ppm [10] [%] | also measured
CCOc1ccc(C(C/C=C/c2cccc(Oc3ccccc3)c2)C(F)(F)F)cc1 (stereo not drawn) [Compound 34, 1,1,1-trifluoro-2-(4-ethoxyphenyl)-5-(3-phenoxyphenyl)pent-4-ene] | < 50 | < 50 | 80 to 100 | < 50 | < 50 | < 50 | < 50 | < 50 | < 50 | 70 to 100 | 80 to 100 | – | – | – | – | – | – | – | – | –
CCOc1ccc(C(CC=Cc2ccc(F)c(Oc3ccccc3)c2)C(F)(F)F)cc1 (stereo not drawn) [Compound 32, 1,1,1-Trifluoro-2-(4-ethoxyphenyl)-5-(4-fluoro-3-phenoxyphenyl)pent-4-ene] | 50 to 79 | < 50 | 80 to 100 | 80 to 100 | 80 to 100 | 80 to 100 | 80 to 100 | 80 to 100 | 80 to 100 | < 50 | 80 to 100 | – | – | – | – | – | – | – | – | –
FC(F)(F)C(CCCc1cccc(Oc2ccccc2)c1)c1ccc(Cl)cc1 (racemic) [Compound 38, 1,1,1-Trifluoro-2-(4-chlorophenyl)-5-(3-phenoxyphenyl)pentane] | – | – | – | – | – | – | – | – | – | – | – | < 50 | < 50 | 80 to 100 | 50 to 79 | 50 to 79 | 50 to 79 | 80 to 100 | 80 to 100 | mortality at 500 ppm [1]: 80 to 100%
FC(F)(F)C(=CCCc1cccc(Oc2ccccc2)c1)c1ccc(C(F)(F)F)cc1 [Compound 15, 5-(3-phenoxyphenyl)-1,1,1-trifluoro-2-(4-trifluoromethylphenyl)pent-2-ene] | 50 to 79 | < 50 | < 50 | < 50 | < 50 | < 50 | 80 to 100 | 80 to 100 | < 50 | < 50 | 80 to 100 | – | – | – | – | – | – | – | – | –
FC(F)(F)c1ccc(C(CCCc2cccc(Oc3ccccc3)c2)C(F)(F)F)cc1 (racemic) [Compound 16, 1,1,1-Trifluoro-2-(4-trifluoromethylphenyl)-5-(3-phenoxyphenyl)pentane] | 50 to 79 | – | 80 to 100 | 80 to 100 | 80 to 100 | 80 to 100 | 80 to 100 | 80 to 100 | 80 to 100 | < 50 | 80 to 100 | – | – | – | – | – | – | – | – | –
CCOc1ccc(/C(=C\C=Cc2ccc(F)c(Oc3ccccc3)c2)C(F)(F)F)cc1 [Compound 12, 1,1,1-trifluoro-2-(4-ethoxyphenyl)-5-(4-fluoro-3-phenoxyphenyl)penta-2,4-diene] | – | – | – | – | – | – | – | – | – | – | – | < 50 | < 50 | 80 to 100 | 80 to 100 | 80 to 100 | 80 to 100 | 80 to 100 | 80 to 100 | mortality at 500 ppm [1]: < 50%; mortality at 500 ppm [7]: 80 to 100%; mortality at 250 µg/mL [9]: 70 to 100%
CCOc1ccc(C(=CCCc2cccc(Oc3ccccc3)c2)C(F)(F)C(F)(F)F)cc1 [Compound 10, 3-(4-ethoxyphenyl)-1,1,1,2,2-pentafluoro-6-(3-phenoxyphenyl)hex-3-ene] | < 50 | < 50 | < 50 | < 50 | < 50 | < 50 | 50 to 79 | < 50 | < 50 | < 50 | < 50 | – | – | – | – | – | – | – | – | –
FC(F)(F)Oc1ccc(C(CCCc2cccc(Oc3ccccc3)c2)C(F)(F)F)cc1 (racemic) [Compound 9, 1,1,1-Trifluoro-2-(4-trifluoromethoxyphenyl)-5-(3-phenoxyphenyl)pentane] | 80 to 100 | 80 to 100 | 80 to 100 | 80 to 100 | 80 to 100 | 80 to 100 | 80 to 100 | 80 to 100 | 80 to 100 | < 50 | 80 to 100 | – | – | – | – | – | – | – | – | –
CCOc1ccc(C(=CCCc2cccc(Oc3ccccc3)c2)C(F)(F)F)cc1 [Compound 1, E,Z-2-(4-ethoxyphenyl)-5-(3-phenoxyphenyl)-1,1,1-trifluoropent-2-ene] | – | – | – | – | – | – | – | – | – | – | – | – | 80 to 100 | 80 to 100 | 80 to 100 | 80 to 100 | 80 to 100 | 80 to 100 | 80 to 100 | mortality at 500 ppm [7]: 80 to 100%; mortality at 250 µg/mL [9]: 50 to 69%
FC(F)(F)Oc1ccc(C(=CCCc2cccc(Oc3ccccc3)c2)C(F)(F)F)cc1 [Compound 7, 5-(3-phenoxyphenyl)-2-(4-trifluoromethoxyphenyl)-1,1,1-trifluoropent-2-ene] | 80 to 100 | 80 to 100 | 80 to 100 | 80 to 100 | < 50 | 50 to 79 | 80 to 100 | 80 to 100 | 80 to 100 | < 50 | 80 to 100 | – | – | – | – | – | – | – | – | –
CCOc1ccc(C(C/C=C\c2cccc(Oc3ccccc3)c2)C(F)(F)F)cc1 (stereo not drawn) [Compound 35, 1,1,1-trifluoro-2-(4-ethoxyphenyl)-5-(3-phenoxyphenyl)pent-4-ene] | 80 to 100 | < 50 | 80 to 100 | 80 to 100 | 80 to 100 | 80 to 100 | 80 to 100 | 80 to 100 | 80 to 100 | < 50 | 80 to 100 | – | – | – | – | – | – | – | – | –
FC(F)(F)C(=CCCc1cccc(Oc2ccccc2)c1)c1ccc(Br)cc1 [Compound 39, 1,1,1-Trifluoro-2-(4-bromophenyl)-5-(3-phenoxyphenyl)-pent-2-ene] | – | – | – | – | – | – | – | – | – | – | – | < 50 | < 50 | < 50 | < 50 | < 50 | 50 to 79 | < 50 | 80 to 100 | –
CCOc1ccc(/C(=C/CCc2cccc(Oc3ccccc3)c2)C(F)(F)F)cc1 [Compound 4, Z-1,1,1-trifluoro-2-(4-ethoxyphenyl)-5-(3-phenoxyphenyl)pent-2-ene] | – | – | – | – | – | – | – | – | – | – | – | < 50 | < 50 | < 50 | < 50 | < 50 | < 50 | < 50 | 80 to 100 | mortality at 500 ppm [1]: < 50%; mortality at 500 ppm [7]: 80 to 100%; mortality at 250 µg/mL [9]: < 50%

Reference: patent US4791139A, “Diphenyl ether derivatives and their use as insecticides” (Imperial Chemical Industries PLC, priority 1986, dated 1988)
